{"source": "patent US20210401821A1", "about": "“PROPHYLACTIC OR THERAPEUTIC AGENT AND MEDICINAL COMPOSITION FOR IL-31-MEDIATED DISEASE” (Kyushu University, National University Corporation, priority 2018, published 2021)", "key": {"[1]": {"test_system": "wild-type C57BL/6 mice", "assay": "Scratching behavior induced by IL-31 after NK3R antagonist administration", "format": "in vivo, mouse", "conditions": "45 minutes before intradermal IL-31 (1 μg/50 μl)", "experimental": "(§1) Prior to the experiments, mice were placed in an acrylic cage (11 cm×14 cm×20 cm) for at least 1 hour to acclimatize to the environment. Subsequently, 50 μL of a pruritus-inducing substance dissolved in sterilized physiological saline was injected intradermally into shoulders of the mice, and the behavior of these mice was videotaped. The total number of scratching behavior within a specified time was determined by playing the video. During the scratching behavior of a mouse, the mouse extends its hind leg to the itchy area, tilts its head toward the hind leg, quickly turns the hind leg several times, and returns the hind leg to the ground. These series of actions were counted as one scratching behavior. As pruritus-inducing substances. IL-31 (1 μg/50 μl; PeproTech Inc.). SLIGRL-NH2 (100 μg/50 μl; Bachem Holding AG), chloroquine (100 μg/50 μl; Wako Pure Chemical Industries.), and histamine (100 μg/50 μl; Wako Pure Chemical Industries.) were used.\n(§2) In some experiments, the actions of NK3R antagonists on the scratching behavior of the mice were investigated. As compounds having activity as an NK3R antagonist or an NK3R antagonist, osanetant (Axon Medchem.), talnetant (NAMIKI SHOJI Co., Ltd.), pavinetant (NAMIKI SHOJI Co., Ltd.), fezolinetant (Haoyuan Chemexpress Co., Ltd.). SSR-146977 (Tocris Bioscience.), SSR-241586 (WuXi AppTec New Drug Development Co. Ltd.), SB-235375 (WuXi AppTec New Drug Development Co. Ltd.), and CS-003 (WuXi AppTec New Drug Development Co. Ltd.) were used. These compounds were administered to the mice in a predetermined amount per weight of each mouse 45 minutes before the intradermal injection of the pruritus-inducing substance. Osanetant was dissolved in phosphate buffered saline (PBS) containing 0.1% Tween-20 and intraperitoneally injected at 5 mg/kg. Talnetant and pavinetant were dissolved in a mixture of 10% dimethyl sulfoxide (DMSO), 40% polyethylene glycol 300, 5% Tween-80, and 45% saline and were intraperitoneally injected at 30 mg/kg. Fezolinetant was dissolved in PBS containing 10% DMSO and orally administered at 10 mg/kg. SSR-146977 was dissolved in PBS containing 0.1% ethanol and intraperitoneally injected at 0.3 mg/kg. SSR-241586 was dissolved in a 0.01% Tween-80 aqueous solution and intraperitoneally injected at 3 mg/kg. SB-235375 was dissolved in PBS and orally administered at 3 mg/kg. CS-003 was dissolved in PBS containing 5% glucose and intravenously injected at 3 mg/kg.\n(§3) Similar to osanetant, fezolinetant that is a selective antagonist of NK3R was orally administered to wild-type C57BL/6 mice, and the effect on the scratching behavior induced by IL-31, histamine, or chloroquine was analyzed.\n(§4) Furthermore, CS-003 that is an antagonist to neurokinin 3 receptor (NK3R) and also an antagonist to neurokinin 1 receptor (NK1R) and neurokinin 2 receptor (NK2R), and SSR-241586 that is an antagonist to NK3R and NK2R were administered to wild-type C57BL/6 mice, and then the effects of the compounds on the scratching behavior induced by IL-31 or chloroquine were analyzed."}, "[2]": {"test_system": "wild-type C57BL/6 mice", "assay": "Scratching behavior induced by chloroquine after NK3R antagonist administration", "format": "in vivo, mouse", "conditions": "45 minutes before intradermal chloroquine (100 μg/50 μl)", "experimental": "as §1, §2, §3, §4"}, "[3]": {"test_system": "wild-type C57BL/6 mice", "assay": "Scratching behavior induced by histamine after NK3R antagonist administration", "format": "in vivo, mouse", "conditions": "45 minutes before intradermal histamine (100 μg/50 μl)", "experimental": "as §1\nIn some experiments, the actions of NK3R antagonists on the scratching behavior of the mice were investigated. […]\nas §3"}, "[4]": {"test_system": "Grp mRNA", "assay": "Grp mRNA expression in stimulated DRG neurons in vitro", "format": "cell-based, mouse", "conditions": "DRG neurons from wild-type C57BL/6 mice stimulated with NKB in vitro; FIG. 4(b)", "experimental": "(§5) Total RNAs were extracted from each tissue using ISOGEN (NIPPON GENE CO., LTD.). Total RNAs were treated with RNase-free DNase I (Thermo Fisher Scientific K.K.). This RNA sample was reverse transcribed using an oligo (dT) primer (v) and SuperScript III reverse transcriptase (Thermo Fisher Scientific K.K.), and amplified by PCR. Real-time PCR was performed by Cfx Connect™ Thermal Cycler (Bio-Rad Laboratories, Inc.) using SYBR Green PCR Master Mix (Applied Biosystems). The expression level of the target gene was normalized by an expression level of Hprt gene. For the analysis, CFX Manager (ver3.1) attached to a device was used.\n(§6) Changes in the expression levels of Tac2, Grp. and Nppb through administration of IL-31 or NKB were analyzed. First. DRG neurons isolated from the wild-type C57BL/6 mice were stimulated by the addition of the IL-31 protein in vitro, and the expression levels of Tac2 mRNA, Grp mRNA, and Nppb mRNA were analyzed.\n(§7) Next, DRG neurons isolated from the wild-type C57BL/6 mice were stimulated by neurokinin B (NKB) in vitro, and the expression levels of Grp mRNA and Nppb mRNA were analyzed."}, "[5]": {"test_system": "Nppb mRNA", "assay": "Nppb mRNA expression in stimulated DRG neurons in vitro", "format": "cell-based, mouse", "conditions": "DRG neurons from wild-type C57BL/6 mice stimulated with NKB in vitro; FIG. 4(b)", "experimental": "as §5, §6, §7"}, "[6]": {"test_system": "Tac2−/− (Δ4) mice", "assay": "Scratching behavior after injecting NKB into medullary cavities", "format": "in vivo, mouse", "conditions": "FIG. 10(a)", "experimental": "Next, in order to identify the site where NKB was functioning. NKB was injected into medullary cavities of Tac2^−/− (Δ4) mice, and scratching behavior was analyzed."}, "[7]": {"conditions": "SSR-241586 3 mg/kg intraperitoneal, CS-003 3 mg/kg intravenous, FIGS. 16(a), 17(a)"}, "[8]": {"conditions": "30 mg/kg intraperitoneal, FIGS. 13(a), 14(a)"}, "[9]": {"conditions": "30 mg/kg intraperitoneal, FIGS. 13(b), 14(b)"}}, "data": [{"compound": "COc1cc(C(=O)N2CCO[C@](CCN3CCC4(CC3)c3ccccc3C[S@+]4[O-])(c3ccc(Cl)c(Cl)c3)C2)cc(OC)c1OC", "note": "[CS-003]", "values": [{"measurement": "frequency of scratching behavior induced by IL-31", "setting": "[1]; [7]", "result": "suppressed"}]}, {"compound": "CC[C@H](NC(=O)c1c(OCC(=O)O)c(-c2ccccc2)nc2ccccc12)c1ccccc1", "note": "[SB-235375, 2-[2-phenyl-4-[N-[1 (S)-phenylpropyl]carbamoyl]quinoline-3-yloxy]acetic acid]", "values": [{"measurement": "frequency of scratching behavior induced by IL-31", "setting": "[1]; 3 mg/kg oral, FIG. 18(a)", "result": "did decrease"}, {"measurement": "frequency of scratching behavior by chloroquine", "setting": "[2]; 3 mg/kg oral, FIG. 18(b)", "result": "did not decrease"}]}, {"compound": "CN(C)C(=O)C1(N2CCCCC2)CCN(CC[C@@]2(c3ccc(Cl)c(Cl)c3)CN(C(=O)c3ccccc3)CCO2)CC1", "note": "[SSR-241586, (+)-1′-[2-[4-benzoyl-2(R)-(3,4-dichlorophenyl)morpholine-2-yl]ethyl]-N,N-dimethyl-1,4′-bipiperidin-4′-carboxamide]", "values": [{"measurement": "frequency of scratching behavior induced by IL-31", "setting": "[1]; [7]", "result": "suppressed"}]}, {"compound": "Cc1nsc(-c2nnc3n2CCN(C(=O)c2ccc(F)cc2)[C@@H]3C)n1", "note": "[fezolinetant, (4-fluorophenyl)-[(8R)-8-methyl-3-(3-methyl-1,2,4-thiadiazole-5-yl)-6,8-dihydro-5H-[1,2,4]triazolo[4,3-a]pyrazine-7-yl]-methanone]", "values": [{"measurement": "frequency of scratching behavior by IL-31", "setting": "[1]; fezolinetant 10 mg/kg oral, FIG. 12(a)", "result": "decreased"}, {"measurement": "frequency of scratching behavior by chloroquine", "setting": "[2]; fezolinetant 10 mg/kg oral, FIG. 12(c)", "result": "did not decrease"}, {"measurement": "frequency of scratching behavior by histamine", "setting": "[3]; fezolinetant 10 mg/kg oral, FIG. 12(b)", "result": "did not decrease"}]}, {"compound": "CC(=O)N(C)C1(c2ccccc2)CCN(CCC[C@]2(c3ccc(Cl)c(Cl)c3)CCCN(C(=O)c3ccccc3)C2)CC1", "note": "[osanetant, N-[1-[3-[(3R)-1-benzoyl-3-(3,4-dichlorophenyl)piperidine-3-yl)propyl)-4-phenylpiperidine-4-yl]-N-methyl acetamide]", "values": [{"measurement": "frequency of scratching behavior by IL-31", "setting": "[1]; osanetant 5 mg/kg intraperitoneal, FIG. 11(c)", "result": "decreased"}, {"measurement": "frequency of scratching behavior by chloroquine", "setting": "[2]; osanetant 5 mg/kg intraperitoneal, FIG. 11(e)", "result": "did not decrease"}, {"measurement": "frequency of scratching behavior by histamine", "setting": "[3]; osanetant 5 mg/kg intraperitoneal, FIG. 11(d)", "result": "did not decrease"}]}, {"compound": "CC[C@H](NC(=O)c1c(NS(C)(=O)=O)c(-c2ccccc2)nc2ccccc12)c1ccccc1", "note": "[pavinetant]", "values": [{"measurement": "frequency of scratching behavior induced by IL-31", "setting": "[1]; [8]", "result": "did decrease"}, {"measurement": "frequency of scratching behavior by chloroquine", "setting": "[2]; [9]", "result": "did not decrease"}]}, {"compound": "CC[C@H](NC(=O)c1c(O)c(-c2ccccc2)nc2ccccc12)c1ccccc1", "note": "[talnetant, N-(α-ethylbenzyl)-3-hydroxy-2-phenylquinoline-4-carboxamide]", "values": [{"measurement": "frequency of scratching behavior induced by IL-31", "setting": "[1]; [8]", "result": "did decrease"}, {"measurement": "frequency of scratching behavior by chloroquine", "setting": "[2]; [9]", "result": "did not decrease"}]}, {"compound": "NKB: mature neurokinin B, neuropeptide from PPT-3 (Tac2 gene), SEQ ID NO: 2; binds neurokinin receptor 3 (DMHDFFVGLM; listed as Homo sapiens)", "values": [{"measurement": "expression level of Grp mRNA", "setting": "[4]", "result": "increased"}, {"measurement": "expression level of Nppb mRNA", "setting": "[5]", "result": "increased"}, {"measurement": "scratching behavior after intramedullary injection of NKB", "setting": "[6]", "result": "induced the scratching behavior"}]}]}
